Source: patent publication US11090319B2, “Therapeutic uses of pharmaceutical compositions comprising cyclic boronic acid ester derivatives” (Melinta Subsidiary Corp., priority 2010, dated 2021)
Like-named read-outs stand apart in the source and are kept apart here.

Tests used:
[1] = tested on: ECL1004 Enterobacter cloacae NMC-A; test: Checkerboard assay, biapenem potentiation; conditions: Biapenem MIC 8-fold; ECL1004 NMC-A class A
[2] = tested on: EC1007 Escherichia coli KPC-3; test: Checkerboard assay, biapenem potentiation; conditions: Biapenem MIC 8-fold; EC1007 KPC-3 class A
[3] = tested on: SM1000 Serratia marcescens SME-2; test: Checkerboard assay, biapenem potentiation; conditions: Biapenem MIC 8-fold; SM1000 SME-2 class A
[4] = tested on: KP1005 Klebsiella pneumoniae CTX-M-14; test: Checkerboard assay, ceftazidime potentiation; conditions: ceftazidime MIC 8-fold; KP1005 CTX-M-14 class A
[5] = tested on: KP1009 Klebsiella pneumoniae CTX-M-15; test: Checkerboard assay, ceftazidime potentiation; conditions: ceftazidime MIC 8-fold; KP1009 CTX-M-15 class A
[6] = tested on: EC1008 Escherichia coli CTX-M-3; test: Checkerboard assay, ceftazidime potentiation; conditions: ceftazidime MIC 8-fold; EC1008 CTX-M-3 class A
[7] = tested on: KP1004 Klebsiella pneumoniae KPC-2; test: Checkerboard assay, ceftazidime potentiation; conditions: ceftazidime MIC 8-fold; KP1004 KPC-2 class A
[8] = tested on: KP1008 Klebsiella pneumoniae KPC-2; test: Checkerboard assay, ceftazidime potentiation; conditions: ceftazidime MIC 8-fold; KP1008 KPC-2 class A
[9] = tested on: EC1007 Escherichia coli KPC-3; test: Checkerboard assay, ceftazidime potentiation; conditions: ceftazidime MIC 8-fold; EC1007 KPC-3 class A
[10] = tested on: KP1010 Klebsiella pneumoniae SHV-12; test: Checkerboard assay, ceftazidime potentiation; conditions: ceftazidime MIC 8-fold; KP1010 SHV-12 class A
[11] = tested on: KP1012 Klebsiella pneumoniae SHV-18; test: Checkerboard assay, ceftazidime potentiation; conditions: ceftazidime MIC 8-fold; KP1012 SHV-18 class A
[12] = tested on: ec306 Escherichia coli SHV-2; test: Checkerboard assay, ceftazidime potentiation; conditions: ceftazidime MIC 8-fold; ec306 SHV-2 class A
[13] = tested on: ec307 Escherichia coli SHV-4; test: Checkerboard assay, ceftazidime potentiation; conditions: ceftazidime MIC 8-fold; ec307 SHV-4 class A
[14] = tested on: ec308 Escherichia coli SHV-5; test: Checkerboard assay, ceftazidime potentiation; conditions: ceftazidime MIC 8-fold; ec308 SHV-5 class A
[15] = tested on: EC1009 Escherichia coli TEM-10; test: Checkerboard assay, ceftazidime potentiation; conditions: ceftazidime MIC 8-fold; EC1009 TEM-10 class A
[16] = tested on: ec302 Escherichia coli TEM-10; test: Checkerboard assay, ceftazidime potentiation; conditions: ceftazidime MIC 8-fold; ec302 TEM-10 class A
[17] = tested on: EC1012 Escherichia coli TEM-12; test: Checkerboard assay, ceftazidime potentiation; conditions: ceftazidime MIC 8-fold; EC1012 TEM-12 class A
[18] = tested on: ec303 Escherichia coli TEM-12; test: Checkerboard assay, ceftazidime potentiation; conditions: ceftazidime MIC 8-fold; ec303 TEM-12 class A
[19] = tested on: EC1011 Escherichia coli TEM-26; test: Checkerboard assay, ceftazidime potentiation; conditions: ceftazidime MIC 8-fold; EC1011 TEM-26 class A
[20] = tested on: ec304 Escherichia coli TEM-26; test: Checkerboard assay, ceftazidime potentiation; conditions: ceftazidime MIC 8-fold; ec304 TEM-26 class A
[21] = tested on: ec300 Escherichia coli TEM-3; test: Checkerboard assay, ceftazidime potentiation; conditions: ceftazidime MIC 8-fold; ec300 TEM-3 class A
[22] = tested on: ec301 Escherichia coli TEM-6; test: Checkerboard assay, ceftazidime potentiation; conditions: ceftazidime MIC 8-fold; ec301 TEM-6 class A
[23] = tested on: CF1000 Citrobacter freundii Hyper AmpC expression; test: Checkerboard assay, ceftazidime potentiation; conditions: ceftazidime MIC 8-fold; CF1000 Hyper AmpC class C
[24] = tested on: ECL1003 Enterobacter cloacae Hyper AmpC expression; test: Checkerboard assay, ceftazidime potentiation; conditions: ceftazidime MIC 8-fold; ECL1003 Hyper AmpC class C
[25] = tested on: ec310 Escherichia coli ACT-1; test: Checkerboard assay, ceftazidime potentiation; conditions: ceftazidime MIC 8-fold; ec310 ACT-1 class C
[26] = tested on: EC1004 Escherichia coli CMY-2; test: Checkerboard assay, ceftazidime potentiation; conditions: ceftazidime MIC 8-fold; EC1004 CMY-2 class C
[27] = tested on: EC1010 Escherichia coli CMY-6; test: Checkerboard assay, ceftazidime potentiation; conditions: ceftazidime MIC 8-fold; EC1010 CMY-6 class C
[28] = tested on: EC1014 Escherichia coli DHA-1; test: Checkerboard assay, ceftazidime potentiation; conditions: ceftazidime MIC 8-fold; EC1014 DHA-1 class C
[29] = tested on: EC1006 Escherichia coli FOX-5; test: Checkerboard assay, ceftazidime potentiation; conditions: ceftazidime MIC 8-fold; EC1006 FOX-5 class C
[30] = tested on: EC1016 Escherichia coli FOX-5; test: Checkerboard assay, ceftazidime potentiation; conditions: ceftazidime MIC 8-fold; EC1016 FOX-5 class C
[31] = tested on: KP1007 Klebsiella pneumoniae OXA-10, qnrB4; test: Checkerboard assay, ceftazidime potentiation; conditions: ceftazidime MIC 8-fold; KP1007 OXA-10, qnrB4 class D
[32] = target: various β-lactamases (bacterial lysates) (Klebsiella pneumoniae, UniProt Q9F663); test: biochemical; format: biochemical
[33] = target: various β-lactamases (bacterial lysates) (Klebsiella pneumoniae, UniProt Q9F663, H272Y); test: biochemical; format: biochemical
[34] = target: various β-lactamases (bacterial lysates) (Pseudomonas aeruginosa, UniProt P14489); test: biochemical; format: biochemical; conditions: AZT IC50 KP1007 OXA-10
[35] = tested on: strains expressing class A ESBLs; format: cell-based
Experimental: (§1) Selected β-lactamase inhibitors were also tested for their ability to potentiate the monobactam tigemonam.

SME-2, lysate of SM1000 = SME-2, lysate of SM1000 (Serratia marcescens, UniProt P52682); test: Inhibition of biapenem hydrolysis by bacterial lysate; conditions: read-out: IC50 of inhibition of biapenem hydrolysis; SM1000 SME-2
[36] = target: CTX-M-15, lysate of KP1009 (Escherichia coli, UniProt Q9EXV5); test: Inhibition of ceftazidime hydrolysis by bacterial lysate
Chain of CTX-M-15, lysate of KP1009 (Q9EXV5 entry or part of it): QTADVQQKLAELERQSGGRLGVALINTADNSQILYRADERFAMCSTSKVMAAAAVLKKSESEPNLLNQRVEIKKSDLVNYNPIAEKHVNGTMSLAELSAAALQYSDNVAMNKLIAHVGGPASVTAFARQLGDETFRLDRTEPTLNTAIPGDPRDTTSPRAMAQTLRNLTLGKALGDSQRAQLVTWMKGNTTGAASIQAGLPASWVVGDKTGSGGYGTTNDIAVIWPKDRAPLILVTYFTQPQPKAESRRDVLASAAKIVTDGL

GES-1, lysate of pa 1063 = GES-1, lysate of pa 1063 (Klebsiella pneumoniae, UniProt Q9KJY7); test: as above
SHV-2, lysate of ec306 = SHV-2, lysate of ec306 (Escherichia coli, UniProt P0A9Z7); test: as above
SHV-5, lysate of ec308 = SHV-5, lysate of ec308 (Escherichia coli, UniProt P0AD63, E235K/G234S); test: as above
OXA-10, lysate of KP1007 = OXA-10, lysate of KP1007 (Pseudomonas aeruginosa, UniProt P14489); test: as above
ECL1002 = test: Tigemonam potentiation assay (MPC@4), class C and D; format: cell-based, Enterobacter cloacae
Experimental: as §1

EC1010 CMY-6 = test: as above; format: cell-based, Escherichia coli; conditions: EC1010 CMY-6 class C
Experimental: as §1

PAM2035 = test: as above; format: cell-based, Pseudomonas aeruginosa
Experimental: as §1

KP1007 OXA-10 = format: cell-based, Klebsiella pneumoniae
Experimental: as §1

KPX1001 OXA-2 = format: cell-based
Experimental: as §1

SMILES: O=C(O)CC1CC[C@H](NC(=O)Cc2cccs2)B(O)O1 (stereo partly drawn) [Compound 1, 2-((3R)-2-hydroxy-3-(2-(thiophen-2-yl)acetamido)-1,2-oxaborinan-6-yl)acetic acid]
- MPC8 [1]: Y (MPC8 of 0.16 μg/mL to 1 μg/mL)
- MPC8 [2]: X (MPC8 of less than 0.16 μg/mL)
- MPC8 [3]: Y (MPC8 of 0.16 μg/mL to 1 μg/mL)
- MPC8 [4]: Z (MPC8 of greater than 10 μg/mL)
- MPC8 [5]: Y (MPC8 of greater than 2.5 μg/mL to 10 μg/mL)
- MPC8 [6]: X (MPC8 of 2.5 μg/mL or less)
- MPC8 [7]: X (MPC8 of 2.5 μg/mL or less)
- MPC8 [8]: X (MPC8 of 2.5 μg/mL or less)
- MPC8 [9]: X (MPC8 of 2.5 μg/mL or less)
- MPC8 [10]: Y (MPC8 of greater than 2.5 μg/mL to 10 μg/mL)
- MPC8 [11]: Y (MPC8 of greater than 2.5 μg/mL to 10 μg/mL)
- MPC8 [12]: Y (MPC8 of greater than 2.5 μg/mL to 10 μg/mL)
- MPC8 [13]: Y (MPC8 of greater than 2.5 μg/mL to 10 μg/mL)
- MPC8 [14]: Y (MPC8 of greater than 2.5 μg/mL to 10 μg/mL)
- MPC8 [15]: Z (MPC8 of greater than 10 μg/mL)
- MPC8 [16]: Z (MPC8 of greater than 10 μg/mL)
- MPC8 [17]: Y (MPC8 of greater than 2.5 μg/mL to 10 μg/mL)
- MPC8 [18]: Y (MPC8 of greater than 2.5 μg/mL to 10 μg/mL)
- MPC8 [19]: Z (MPC8 of greater than 10 μg/mL)
- MPC8 [20]: Z (MPC8 of greater than 10 μg/mL)
- MPC8 [21]: Y (MPC8 of greater than 2.5 μg/mL to 10 μg/mL)
- MPC8 [22]: Z (MPC8 of greater than 10 μg/mL)
- MPC8 [23]: Y (MPC8 of greater than 2.5 μg/mL to 10 μg/mL)
- MPC8 [24]: Z (MPC8 of greater than 10 μg/mL)
- MPC8 [25]: X (MPC8 of 2.5 μg/mL or less)
- MPC8 [26]: X (MPC8 of 2.5 μg/mL or less)
- MPC8 [27]: Y (MPC8 of greater than 2.5 μg/mL to 10 μg/mL)
- MPC8 [28]: Z (MPC8 of greater than 10 μg/mL)
- MPC8 [29]: Y (MPC8 of greater than 2.5 μg/mL to 10 μg/mL)
- MPC8 [30]: Z (MPC8 of greater than 10 μg/mL)
- MPC8 [31]: Y (MPC8 of greater than 2.5 μg/mL to 10 μg/mL)

SMILES: C[C@]1(Cn2ccnn2)[C@H](C(=O)O)N2C(=O)C[C@H]2S1(=O)=O [Tazobactam, reference compound]
- IC50 ([32]; AZT IC50 KP1008 KPC-2): 7390 nM
- IC50 ([32]; lysate KP1004 KPC-2, aztreonam cleavage, numeric values, read-out: AZT IC50 KP1004 KPC-2 (converted)): 2460 nM
- IC50 [33]: 2460 nM
- IC50 [34]: 14800 nM
- MPC4 CTX-M-14 KP1005 [35]: 10 µg/mL
- MPC4 CTX-M-15 KP1009 [35]: 10 µg/mL
- MPC4 SHV-5 ec308 [35]: 5 µg/mL
- MPC4 SHV-12 KP1010 [35]: 1.25 µg/mL
- MPC4 SHV-18 KP1012 [35]: 1.25 µg/mL
- MPC4 TEM-10 EC1009 [35]: 2.5 µg/mL
- MPC4 TEM-10 ec302 [35]: 5 µg/mL
- MPC4 TEM-26 ec304 [35]: 1.25 µg/mL
- IC50 (SME-2, lysate of SM1000): 333 to 3330 nM
- IC50 [36]: < 333 nM
- IC50 (GES-1, lysate of pa 1063): 333 to 3330 nM
- IC50 (SHV-2, lysate of ec306): 333 to 3330 nM
- IC50 (SHV-5, lysate of ec308): < 333 nM
- IC50 (OXA-10, lysate of KP1007): 333 to 3330 nM

SMILES: CC1(C)[C@H](NC(=O)/C(=N\OCC(=O)O)c2csc(N)n2)C(=O)N1OS(=O)(=O)O [Tigemonam]
- Tigemonam MIC (ECL1002): 32 µg/mL
- Tigemonam MIC (EC1010 CMY-6): 16 µg/mL
- Tigemonam MIC (PAM2035): 8 µg/mL
- Tigemonam MIC (KP1007 OXA-10): 256 µg/mL
- Tigemonam MIC (KPX1001 OXA-2): 8 µg/mL
